# Measurements from US20130344008A1, “NONCARIOUS MATERIAL AND ANTICARIOUS AGENT CONTAINING RARE SUGAR” (priority 2006, published 2013).
# Assays:
# Type in all cases: cell-based, Streptococcus mutans
# [1] = test system: S. mutans strain (JCM5075); assay: Example 3: pH of S. mutans culture in BHI broth with test substance after 48-hour culturing; conditions: 10% test substance; for pH: BHI broth, after 48-hour culturing
# Method: Allitol and D-sorbose were used to assay the actions thereof against S. mutans. Allitol and D-sorbose were supplied from the Rare Sugar Research Center, the National University Corporation Kagawa University. The S. mutans strain (JCM5075) was plated in a Brain Heart Infusion broth containing a 10% test substance, to measure the pH of the liquid culture after 48-hour culturing. As a control, 1% sucrose and 10% Xylitol were used.
# [2] = test system: S. mutans strain MT 8148 (JCM5175); assay: Example 2: bacterial growth (OD 660 nm) and pH of S. mutans culture in phenol red broth with 1% test substance; conditions: PRB broth, 37° C., 48 hours later; for OD: bacterial growth, absorbance at 660 nm
# Method: D-Psicose and L-psicose were used to assay the actions thereof against S. mutans. D-Psicose and L-psicose were supplied from the Rare Sugar Research Center, the National University Corporation Kagawa University. The S. mutans strain MT 8148 (JCM5175) was plated in a Brain Heart Infusion broth supplemented with agar for culturing at 37° C. for 48 hours. The liquid culture was inoculated in a fresh Brain Heart Infusion broth, for culturing at 37° C. for 24 hours. The liquid culture was inoculated in a phenol red broth (PRB broth) containing a test substance at 1%, for culturing at 37° C.; the bacterial growth (absorbance at 660 nm: OD) and the pH were assayed 48 hours later. Asa control, glucose, fructose, sucrose and Xylitol were used. After culturing for a given period of time, additionally, the optical density of apart of the liquid culture was measured with an absorptiometer (OD 660 nm).
# [3] = test system: S. mutans strain JCM5075; assay: Example 1: optical density and pH of S. mutans JCM5075 cultures in BHI broth with rare sugars, with or without sucrose; conditions: for pH 0 hour later / pH 6 hours later / pH 8 hours later / pH 12 hours later / pH 24 hours later / Optical density (OD) 12 hours later / suppression of OD increase compared with no addition: BHI broth; for Optical density (OD) 12 hours later: OD600; for suppression of the pH reduction: also with 1% sucrose addition; for suppression of OD increase compared with no addition: FIG. 2 / Table 1
# Source text: S. mutans strains characteristically form insoluble glucan on addition of sucrose, to generate acids and reduce the pH of the culture medium, which is considered to cause decalcification of teeth on dental surface to form decayed teeth (the reason why the strains are designated bacteria causing decayed teeth). JCM 5075 of S. mutans strains and the Brain Heart Infusion (BHI) broth were used to assay the optical density (the increase of the number of the bacterial cells) and the pH change in individual rare sugar solutions with or without sucrose added. As the rare sugars, there were used D-fructose, L-fructose, D-sorbose, L-sorbose, D-psicose, L-psicose, D-tagatose and L-tagatose. The rare sugars used were supplied from the Rare Sugar Research Center, the National University Corporation Kagawa University.
# The strain JCM5075 thawed from −80° C. stock was cultured for 48 hours, and was adjusted to OD 0.3. 100 μl of the resulting culture was added to each 2-ml portion of the BHI broths under individual conditions, to assay the optical density and the pH 24 hours later (observation with naked eyes and absorbance: OD600).
# After collecting a part of the liquid culture and centrifuging the culture, the pH of the resulting supernatant was measured with a pH meter. The results are shown in Table 2 (0, 6, 8, 12 and 24 hours after the addition of the bacteria to the BHI broth) and FIG. 3.
# [4] = 10% test substance + 1% sucrose
SMILES,pH 0 hour later ([3]; 5% test substance + 1% sucrose),pH 6 hours later ([3]; 5% test substance + 1% sucrose),pH 8 hours later ([3]; 5% test substance + 1% sucrose),pH 12 hours later ([3]; 5% test substance + 1% sucrose),pH 24 hours later ([3]; 5% test substance + 1% sucrose),"pH 0 hour later ([3]; 5% test substance, no sucrose)","pH 6 hours later ([3]; 5% test substance, no sucrose)","pH 8 hours later ([3]; 5% test substance, no sucrose)","pH 12 hours later ([3]; 5% test substance, no sucrose)","pH 24 hours later ([3]; 5% test substance, no sucrose)","pH 0 hour later [3, 4]","pH 6 hours later [3, 4]","pH 8 hours later [3, 4]","pH 12 hours later [3, 4]","pH 24 hours later [3, 4]",Optical density (OD) 12 hours later ([3]; 10% test substance),"pH 0 hour later ([3]; 10% test substance, no sucrose)","pH 6 hours later ([3]; 10% test substance, no sucrose)","pH 8 hours later ([3]; 10% test substance, no sucrose)","pH 12 hours later ([3]; 10% test substance, no sucrose)",further results
OC[C@@H](O)[C@@H](O)[C@@H](O)[C@@H](O)CO [Allitol],,,,,,,,,,,,,,,,,,,,,pH [1]: 5.6; pH ([1]; listed as allitol): ≥ 5.5
"O=C[C@H](O)[C@@H](O)[C@H](O)[C@H](O)CO [D-Glucose, reference compound]",,,,,,,,,,,,,,,,,,,,,pH [2]: 3.9; OD [2]: 0.26
"O=C(CO)[C@@H](O)[C@H](O)[C@H](O)CO [D-fructose, reference compound]",7.4,7.2,7.2,7.2,5.0,7.4,7.2,7.2,7.2,4.7,7.3,7.2,7.2,7.2,5.1,0.114,7.3,7.2,7.2,7.2,"pH change 24 hours later (in words) ([3]; 1% sucrose, or 10% Xylitol+1% sucrose, or 10% fructose+1% sucrose, FIG. 3): highly inclined to acidity; pH 24 hours later ([3]; 10% test substance, no sucrose): 6.5; precipitation of bacterial masses (insoluble glucan) under observation with naked eyes ([3]; addition of 1% sucrose, addition of 10% D-fructose, 24 hours later): caused the precipitation of bacterial masses (insoluble glucan)"
O=C(CO)[C@H](O)[C@@H](O)[C@H](O)CO [D-sorbose],7.3,7.2,7.2,7.2,5.0,7.4,7.2,7.2,7.2,5.5,7.3,7.2,7.2,7.2,6.9,0.102,7.3,7.2,7.2,7.2,"assimilability with the S. mutans strain ([1]; 48-hour culturing): low assimilability; pH [1]: 5.0; pH 24 hours later ([3]; 10% test substance, no sucrose): 6.9; suppression of the pH reduction ([3]; 24 hours later, FIG. 3): pH reduction was suppressed; suppression of OD increase compared with no addition [3]: suppression of OD increase was observed"
O=C(CO)[C@@H](O)[C@@H](O)[C@H](O)CO [D-tagatose],7.3,7.2,7.2,7.2,6.9,7.3,7.2,7.2,7.2,7.0,7.1,7.0,7.0,7.0,6.9,0.132,7.1,7.0,7.0,7.0,"pH 24 hours later ([3]; 10% test substance, no sucrose): 6.9; suppression of the pH reduction ([3]; 24 hours later, FIG. 3): pH reduction was suppressed; suppression of OD increase compared with no addition [3]: suppression of OD increase was observed"
O=C(CO)[C@H](O)[C@@H](O)[C@@H](O)CO [L-fructose],7.3,7.2,7.2,7.2,5.0,7.4,7.2,7.2,7.2,4.7,7.3,7.2,7.2,7.2,6.7,0.037,7.3,7.2,7.2,7.2,"pH 24 hours later ([3]; 10% test substance, no sucrose): 6.5; suppression of the pH reduction ([3]; 24 hours later, FIG. 3): pH reduction was suppressed; suppression of OD increase compared with no addition [3]: suppression of OD increase was observed; pH [2]: 4.0; OD [2]: 0.20"
O=C(CO)[C@@H](O)[C@@H](O)[C@@H](O)CO [L-psicose],7.3,7.2,7.2,7.2,6.2,7.3,7.2,7.2,7.2,6.8,7.2,7.1,7.0,7.0,6.9,0.067,7.2,7.1,7.0,7.0,"pH 24 hours later ([3]; 10% test substance, no sucrose): 6.9; suppression of the pH reduction ([3]; 24 hours later, FIG. 3): pH reduction was suppressed; suppression of OD increase compared with no addition [3]: suppression of OD increase was observed; pH [2]: 5.9; OD [2]: 0.02"
O=C(CO)[C@@H](O)[C@H](O)[C@@H](O)CO [L-sorbose],7.4,7.2,7.2,7.2,5.3,7.4,7.2,7.2,7.2,5.9,7.3,7.2,7.2,7.2,6.4,0.463,7.3,7.2,7.2,7.2,"pH 24 hours later ([3]; 10% test substance, no sucrose): 7.1"
O=C(CO)[C@H](O)[C@H](O)[C@@H](O)CO [L-tagatose],7.3,7.2,7.2,7.2,6.0,7.3,7.2,7.2,7.2,6.6,7.1,7.0,6.9,6.9,6.8,0.026,7.1,7.0,6.9,6.9,"pH 24 hours later ([3]; 10% test substance, no sucrose): 6.8; suppression of the pH reduction ([3]; 24 hours later, FIG. 3): pH reduction was suppressed; suppression of OD increase compared with no addition [3]: suppression of OD increase was observed"
